# In patent US10758534B2 (Vertex Pharmaceuticals Incorporated, priority 2014, dated 2020):
# Target: T1, F508del (Homo sapiens, UniProt P13569, DEL508-508)
# T1 construct: expressed in transfected cells
# Assay: Protocol 1: membrane potential optical assay (FLIPR III, voltage sensing dye), identification of potentiator compounds
# Type: cell-based
# Conditions: Table 3, compounds of Table 1
# Summary of the method: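 NIH 3T3 fibroblasts stably expressing F508del were cultured at 27° C for 24 hrs for temperature correction, then treated with compounds or DMSO and loaded with a voltage-sensing redistribution dye. Forskolin added with a Cl⁻ gradient activated the channel; membrane-potential fluorescence on FLIPR III reported increased gating.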
# T1 sequence (P13569 with tags, fused parts or gaps DEL508-508): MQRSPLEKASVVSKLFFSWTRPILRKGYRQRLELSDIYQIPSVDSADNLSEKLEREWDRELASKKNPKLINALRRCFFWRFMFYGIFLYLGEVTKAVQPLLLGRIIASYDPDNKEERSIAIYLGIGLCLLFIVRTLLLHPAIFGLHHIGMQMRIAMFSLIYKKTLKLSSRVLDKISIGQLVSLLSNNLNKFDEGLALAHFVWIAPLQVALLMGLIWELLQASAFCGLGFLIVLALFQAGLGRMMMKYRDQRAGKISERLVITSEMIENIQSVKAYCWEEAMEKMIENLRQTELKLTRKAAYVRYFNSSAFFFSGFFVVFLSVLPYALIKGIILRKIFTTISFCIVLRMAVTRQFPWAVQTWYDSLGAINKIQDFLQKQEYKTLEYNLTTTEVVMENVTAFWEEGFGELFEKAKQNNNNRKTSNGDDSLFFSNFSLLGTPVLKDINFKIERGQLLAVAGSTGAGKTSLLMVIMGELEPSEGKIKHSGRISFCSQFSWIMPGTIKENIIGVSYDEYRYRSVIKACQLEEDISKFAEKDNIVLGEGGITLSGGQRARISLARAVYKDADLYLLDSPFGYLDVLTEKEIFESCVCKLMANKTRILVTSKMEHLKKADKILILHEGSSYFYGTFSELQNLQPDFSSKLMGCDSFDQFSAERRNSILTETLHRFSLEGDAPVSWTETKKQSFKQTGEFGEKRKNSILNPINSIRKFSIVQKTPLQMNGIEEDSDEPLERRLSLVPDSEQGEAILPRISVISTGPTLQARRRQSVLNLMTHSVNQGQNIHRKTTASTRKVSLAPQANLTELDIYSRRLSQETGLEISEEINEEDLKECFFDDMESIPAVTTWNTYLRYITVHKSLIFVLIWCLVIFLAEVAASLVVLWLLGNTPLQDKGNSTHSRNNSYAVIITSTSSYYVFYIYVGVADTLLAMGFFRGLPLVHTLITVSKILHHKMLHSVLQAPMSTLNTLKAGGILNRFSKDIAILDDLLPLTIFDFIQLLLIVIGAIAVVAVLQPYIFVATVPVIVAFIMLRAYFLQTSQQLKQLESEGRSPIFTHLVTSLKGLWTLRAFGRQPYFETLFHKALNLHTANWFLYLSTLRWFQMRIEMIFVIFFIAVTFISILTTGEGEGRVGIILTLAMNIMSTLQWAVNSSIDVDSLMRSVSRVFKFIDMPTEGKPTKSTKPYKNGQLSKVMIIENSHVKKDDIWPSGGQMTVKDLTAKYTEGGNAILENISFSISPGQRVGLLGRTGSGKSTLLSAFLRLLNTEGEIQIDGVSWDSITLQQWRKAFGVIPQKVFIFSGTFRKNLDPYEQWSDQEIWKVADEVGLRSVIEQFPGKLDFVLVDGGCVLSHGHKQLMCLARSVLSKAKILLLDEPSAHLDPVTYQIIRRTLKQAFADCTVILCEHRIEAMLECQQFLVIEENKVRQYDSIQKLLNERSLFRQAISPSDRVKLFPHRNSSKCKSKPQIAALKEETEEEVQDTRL
row,EC30,SMILES
1,+++ (“+++” means <3 uM),"CC(C)Oc1ccc(-c2ccc(C(=O)NS(=O)(=O)c3cccc(N)n3)c(N3CCC(C)(C)CC3)n2)cn1 [Compound 1134, N-[(6-amino-2-pyridyl)sulfonyl]-2-(4,4-dimethyl-1-piperidyl)-6-(6-isopropoxy-3-pyridyl)pyridine-3-carboxamide]"
2,+++ (“+++” means <3 uM),"CC(C)CCOc1cccc(-c2ccc(C(=O)NS(=O)(=O)c3cccc(N)n3)c(N3CC(C)CC3(C)C)n2)n1 (centres unmarked) [Compound 1135, N-[(6-amino-2-pyridyl)sulfonyl]-6-(6-isopentyloxy-2-pyridyl)-2-(2,2,4-trimethylpyrrolidin-1-yl)pyridine-3-carboxamide]"
3,+++ (“+++” means <3 uM),"CC(C)Oc1ccc(-c2ccc(C(=O)NS(=O)(=O)c3cccc(N)n3)c(N3C[C@@H](C)C[C@H](C)C3)n2)cn1 [Compound 1136, N-[(6-amino-2-pyridyl)sulfonyl]-2-[(3S,5S)-3,5-dimethyl-1-piperidyl]-6-(6-isopropoxy-3-pyridyl)pyridine-3-carboxamide]"
4,++ (“++” means between 3 uM and 10 uM),"Cc1cc(C)c(Oc2nc(C)ccc2C(=O)NS(=O)(=O)c2cccc(N)n2)c(C)c1 [Compound 1137, N-[(6-amino-2-pyridyl)sulfonyl]-6-methyl-2-(2,4,6-trimethylphenoxy)pyridine-3-carboxamide]"
5,+++ (“+++” means <3 uM),"Cc1cc(C)c(Oc2nc(-c3cc(F)cc(OC(C)C)c3)ccc2C(=O)NS(=O)(=O)c2cccc(N)n2)c(C)c1 [Compound 1138, N-[(6-amino-2-pyridyl)sulfonyl]-6-(3-fluoro-5-isopropoxy-phenyl)-2-(2,4,6-trimethylphenoxy)pyridine-3-carboxamide]"
6,+++ (“+++” means <3 uM),"Cc1cc(C)c(Oc2nc(-c3cnc(N(C)C)nc3)ccc2C(=O)NS(=O)(=O)c2cccc(N)n2)c(C)c1 [Compound 1139, N-[(6-amino-2-pyridyl)sulfonyl]-6-[2-(dimethylamino)pyrimidin-5-yl]-2-(2,4,6-trimethylphenoxy)pyridine-3-carboxamide]"
7,+++ (“+++” means <3 uM),"COc1ccc(-c2ccc(C(=O)NS(=O)(=O)c3cccc(N)n3)c(Oc3c(C)cc(C)cc3C)n2)cc1F [Compound 1140, N-[(6-amino-2-pyridyl)sulfonyl]-6-(3-fluoro-4-methoxy-phenyl)-2-(2,4,6-trimethylphenoxy)pyridine-3-carboxamide]"
8,++ (“++” means between 3 uM and 10 uM),"COc1cccc(-c2ccc(C(=O)NS(=O)(=O)c3cccc(N)n3)c(N3[C@H](C)CC[C@@H]3C)n2)n1 [Compound 1141, N-[(6-amino-2-pyridyl)sulfonyl]-2-[(2S,5R)-2,5-dimethylpyrrolidin-1-yl]-6-(6-methoxy-2-pyridyl)pyridine-3-carboxamide]"
9,++ (“++” means between 3 uM and 10 uM),"CCCOc1cccc(-c2ccc(C(=O)NS(=O)(=O)c3ccc[nH]c3=O)c(Oc3c(C)cc(C)cc3C)n2)c1 [Compound 1143, N-[(2-oxo-1H-pyridin-3-yl)sulfonyl]-6-(3-propoxyphenyl)-2-(2,4,6-trimethylphenoxy)pyridine-3-carboxamide]"
10,+++ (“+++” means <3 uM),"CC(C)Oc1ccc(-c2ccc(C(=O)NS(=O)(=O)c3cccc(N)n3)c(N3C[C@H](C)C[C@H](C)C3)n2)cn1 [Compound 1145, N-[(6-amino-2-pyridyl)sulfonyl]-2-[(3R,5S)-3,5-dimethyl-1-piperidyl]-6-(6-isopropoxy-3-pyridyl)pyridine-3-carboxamide]"
11,++ (“++” means between 3 uM and 10 uM),"COc1ccc(-c2ccc(C(=O)NS(=O)(=O)c3cccc(N)n3)c(Oc3c(C)cc(C)cc3C)n2)cc1OC [Compound 1146, N-[(6-amino-2-pyridyl)sulfonyl]-6-(3,4-dimethoxyphenyl)-2-(2,4,6-trimethylphenoxy)pyridine-3-carboxamide]"
12,++ (“++” means between 3 uM and 10 uM),"Cc1cc(C)c(Oc2nc(-c3ccc(C(C)(C)O)cc3)ccc2C(=O)NS(=O)(=O)c2cccc(N)n2)c(C)c1 [Compound 1147, N-[(6-amino-2-pyridyl)sulfonyl]-6-[4-(1-hydroxy-1-methyl-ethyl)phenyl]-2-(2,4,6-trimethylphenoxy)pyridine-3-carboxamide]"
13,+++ (“+++” means <3 uM),"Cc1cc(C)c(Oc2nc(C(C)(C)C)ccc2C(=O)NS(=O)(=O)c2cnc(N)s2)c(C)c1 [Compound 1148, N-(2-aminothiazol-5-yl)sulfonyl-6-tert-butyl-2-(2,4,6-trimethylphenoxy)pyridine-3-carboxamide]"
14,+++ (“+++” means <3 uM),"Cc1ccc(Oc2nc(-c3cc(F)cc(OC(C)C)c3)ccc2C(=O)NS(=O)(=O)c2cccc(N)n2)c(C)c1 [Compound 1150, N-[(6-amino-2-pyridyl)sulfonyl]-2-(2,4-dimethylphenoxy)-6-(3-fluoro-5-isopropoxy-phenyl)pyridine-3-carboxamide]"
15,++ (“++” means between 3 uM and 10 uM),"COc1ccc(F)cc1-c1ccc(C(=O)NS(=O)(=O)c2ccc[nH]c2=O)c(Oc2c(C)cc(C)cc2C)n1 [Compound 1151, 6-(5-fluoro-2-methoxy-phenyl)-N-[(2-oxo-1H-pyridin-3-yl)sulfonyl]-2-(2,4,6-trimethylphenoxy)pyridine-3-carboxamide]"
16,+ (“+” means greater than 10 uM),"CC1(Cn2nc(C(C)(C)C)cc2C(=O)NS(=O)(=O)c2cccc(N)c2)CCCCC1 [Compound 1152, N-(3-aminophenyl)sulfonyl-5-tert-butyl-2-[(1-methylcyclohexyl)methyl]pyrazole-3-carboxamide]"
17,+++ (“+++” means <3 uM),"COc1nc(C)ccc1S(=O)(=O)NC(=O)c1ccc(C(C)(C)C)nc1Oc1c(C)cc(C)cc1C [Compound 1153, 6-tert-butyl-N-[(2-methoxy-6-methyl-3-pyridyl)sulfonyl]-2-(2,4,6-trimethylphenoxy)pyridine-3-carboxamide]"
18,+++ (“+++” means <3 uM),"CCCc1ccc2c(c1)cc(C(=O)NS(=O)(=O)c1cccc(N)n1)n2Cc1c(C)cc(C)cc1C [Compound 1158, N-[(6-amino-2-pyridyl)sulfonyl]-5-propyl-1-[(2,4,6-trimethylphenyl)methyl]indole-2-carboxamide]"
19,+++ (“+++” means <3 uM),"Cc1cc(OCC(C)(C)C)ncc1-c1ccc(C(=O)NS(=O)(=O)c2cccc(N)n2)c(N2CC(C)CC2(C)C)n1 (centres unmarked) [Compound 1160, N-[(6-amino-2-pyridyl)sulfonyl]-6-[6-(2,2-dimethylpropoxy)-4-methyl-3-pyridyl]-2-(2,2,4-trimethylpyrrolidin-1-yl)pyridine-3-carboxamide]"
20,+++ (“+++” means <3 uM),"COc1cccc2c1CN(Cc1c(C)cc(C)cc1C)C2(C)C(=O)NS(=O)(=O)c1cccc(N)n1 (centres unmarked) [Compound 1161, N-[(6-amino-2-pyridyl)sulfonyl]-4-methoxy-1-methyl-2-[(2,4,6-trimethylphenyl)methyl]isoindoline-1-carboxamide]"

row,SMILES,EC30
1,"CC(C)COc1cc(F)cc(-c2ccc(C(=O)NS(=O)(=O)c3ccn[nH]3)c(N3CCCC3C)n2)c1 (centres unmarked) [Compound 1142, 6-(3-fluoro-5-isobutoxy-phenyl)-2-(2-methylpyrrolidin-1-yl)-N-(1H-pyrazol-5-ylsulfonyl)pyridine-3-carboxamide]",++ (“++” means between 3 uM and 10 uM)
2,"CC(C)COc1cc(F)cc(-c2ccc(C(=O)NS(=O)(=O)c3cccc(N)n3)c(N3CCC(C)(C)[C@@H]3C)n2)c1 [Compound 1144, N-[(6-amino-2-pyridyl)sulfonyl]-6-(3-fluoro-5-isobutoxy-phenyl)-2-[(2S)-2,3,3-trimethylpyrrolidin-1-yl]pyridine-3-carboxamide]",+++ (“+++” means <3 uM)
3,"COC[C@H]1CCCN1c1nc(-c2cc(F)cc(OCC(C)C)c2)ccc1C(=O)NS(=O)(=O)c1cccc(N)n1 [Compound 1149, N-[(6-amino-2-pyridyl)sulfonyl]-6-(3-fluoro-5-isobutoxy-phenyl)-2-[(2R)-2-(methoxymethyl)pyrrolidin-1-yl]pyridine-3-carboxamide]",+++ (“+++” means <3 uM)
4,"CC(C)(C)c1ccc(C(=O)NS(=O)(=O)c2cccc(N)n2)c(OC2CCC2)n1 [Compound 1154, N-[(6-amino-2-pyridyl)sulfonyl]-6-tert-butyl-2-(cyclobutoxy)pyridine-3-carboxamide]",++ (“++” means between 3 uM and 10 uM)
5,"CCOC1CCN(c2nc(-c3cc(F)cc(OCC(C)C)c3)ccc2C(=O)NS(=O)(=O)c2ccn[nH]2)CC1 [Compound 1155, 2-(4-ethoxy-1-piperidyl)-6-(3-fluoro-5-isobutoxy-phenyl)-N-(1H-pyrazol-5-ylsulfonyl)pyridine-3-carboxamide]",++ (“++” means between 3 uM and 10 uM)
6,"CC(C)COc1cc(F)cc(-c2ccc(C(=O)NS(=O)(=O)c3cccc(N)n3)c(N3CCC(C)(C)C3C)n2)c1 (centres unmarked) [Compound 1156, N-[(6-amino-2-pyridyl)sulfonyl]-6-(3-fluoro-5-isobutoxy-phenyl)-2-(2,3,3-trimethylpyrrolidin-1-yl)pyridine-3-carboxamide]",+++ (“+++” means <3 uM)
7,"CC(C)COc1cc(F)cc(-c2ccc(C(=O)NS(=O)(=O)c3cccc(N)n3)c(N(CC3CC3)C(C)C)n2)c1 [Compound 1157, N-[(6-amino-2-pyridyl)sulfonyl]-2-[cyclopropylmethyl(isopropyl)amino]-6-(3-fluoro-5-isobutoxy-phenyl)pyridine-3-carboxamide]",+++ (“+++” means <3 uM)
8,"CC(C)COc1cc(F)cc(-c2ccc(C(=O)NS(=O)(=O)c3cccnc3N)c(N3[C@H](C)CC[C@@H]3C)n2)c1 [Compound 1159, N-[(2-amino-3-pyridyl)sulfonyl]-2-[(2S,5R)-2,5-dimethylpyrrolidin-1-yl]-6-(3-fluoro-5-isobutoxy-phenyl)pyridine-3-carboxamide]",+++ (“+++” means <3 uM)
9,"C=C1CCN(c2nc(-c3cc(F)cc(OCC(C)C)c3)ccc2C(=O)NS(=O)(=O)c2cccc(N)n2)CC1 [Compound 1162, N-[(6-amino-2-pyridyl)sulfonyl]-6-(3-fluoro-5-isobutoxy-phenyl)-2-(4-methylene-1-piperidyl)pyridine-3-carboxamide]",+++ (“+++” means <3 uM)
